Experimental data published in patent publication US9321773B2, “Compounds” (Respivert Ltd, priority 2009, dated 2016).
Where two headings read alike, the source gives them in different places.

Legend:
recombinant PI3 kinase γ = recombinant PI3 kinase γ (Homo sapiens (Human), UniProt P48736); test: Enzyme Inhibition Assay (HTRF PI3K enzyme assay, TR-FRET); type: biochemical
How it was run: (§1)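 TR-FRET readout after 15-18 hr at RT with biotinylated PIP3, GST-tagged GRP1 PH domain and europium/APC fluorophores; product PIP3 displaces the tracer and lowers the signal. Beforehand, compound and PIP2 were reacted for 2 hr at RT with human recombinant PI3Kα, δ or γ.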

[1] = tested on: PMA-differentiated U937 cells; test: MTT Assay (cell viability); type: cell-based, Human; details: percentage loss of cell viability; for Cell Viability MTT Assay in D-U937 cells at 4 hr: 4 hr in 5% FCS; for Cell Viability MTT Assay in D-U937 cells at 24 hr: 24 hr in 10% FCS
How it was run: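 Differentiated U937 cells treated with compound for 4 hr (5% FCS) or 24 hr (10% FCS), then given MTT for 1 hr; formazan dissolved in DMSO and absorbance read at 550 nm. Viability loss expressed as % versus 0.5% DMSO vehicle.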

[2] = tested on: LPS induced neutrophilia in mouse lung; test: LPS-Induced Neutrophilia in the Mouse; type: in vivo; details: for % Inhibition of neutrophils in BAL at the dose indicated (mg/mL) (0.05): 0.05 mg/mL intra-tracheal; for % Inhibition of neutrophils in BAL at the dose indicated (mg/mL) (0.05) / % Inhibition of neutrophils in BAL at the dose indicated (mg/mL) (0.2) / % Inhibition of neutrophils in BAL at the dose indicated (mg/mL) (1.0): 2 hr before LPS challenge; for % Reduction of inhibition at 8 hr compared with 2 hr: 0.2 mg/mL dose; for % Reduction of inhibition at 8 hr compared with 2 hr / % Inhibition at 0.2 mg/mL dose at time indicated (hr) (2) / % Inhibition at 0.2 mg/mL dose at time indicated (hr) (8): mouse lung; for % Inhibition of neutrophils in BAL at the dose indicated (mg/mL) (0.2): 0.2 mg/mL intra-tracheal; for % Inhibition at 0.2 mg/mL dose at time indicated (hr) (2): dosed 2 hr before LPS challenge; for % Inhibition at 0.2 mg/mL dose at time indicated (hr) (8): dosed 8 hr before LPS challenge; for % Inhibition of neutrophils in BAL at the dose indicated (mg/mL) (1.0): 1.0 mg/mL intra-tracheal; for inhibition of LPS-induced neutrophilia (neutrophil influx into the lung), in words: intra-tracheal dosing before LPS challenge
Experimental: Non-fasted mice were dosed by the intra-tracheal route with either vehicle, or the test substance at the time points (“pre-dose”) indicated with respect to the start of LPS treatment. At T=0, mice were placed into an exposure chamber and exposed to LPS. Eight hr after LPS challenge, animals were anesthetized, the trachea cannulated and BALF extracted by infusing and withdrawing 1 mL of PBS into the lungs via a tracheal catheter. Total and differential white cell counts in the BALF samples were measured using a Neubaur haemocytometer. Cytospin smears of the BALF samples were prepared by centrifugation at 200 rpm for 5 min at RT and stained using a DiffQuik stain system (Dade Behring). Cells were counted using oil immersion microscopy.

recombinant PI3 kinase α = recombinant PI3 kinase α (Homo sapiens (Human), UniProt P42336); test: Enzyme Inhibition Assay (HTRF PI3K enzyme assay, TR-FRET); type: biochemical
recombinant PI3 kinase α, sequence (P42336 whole entry): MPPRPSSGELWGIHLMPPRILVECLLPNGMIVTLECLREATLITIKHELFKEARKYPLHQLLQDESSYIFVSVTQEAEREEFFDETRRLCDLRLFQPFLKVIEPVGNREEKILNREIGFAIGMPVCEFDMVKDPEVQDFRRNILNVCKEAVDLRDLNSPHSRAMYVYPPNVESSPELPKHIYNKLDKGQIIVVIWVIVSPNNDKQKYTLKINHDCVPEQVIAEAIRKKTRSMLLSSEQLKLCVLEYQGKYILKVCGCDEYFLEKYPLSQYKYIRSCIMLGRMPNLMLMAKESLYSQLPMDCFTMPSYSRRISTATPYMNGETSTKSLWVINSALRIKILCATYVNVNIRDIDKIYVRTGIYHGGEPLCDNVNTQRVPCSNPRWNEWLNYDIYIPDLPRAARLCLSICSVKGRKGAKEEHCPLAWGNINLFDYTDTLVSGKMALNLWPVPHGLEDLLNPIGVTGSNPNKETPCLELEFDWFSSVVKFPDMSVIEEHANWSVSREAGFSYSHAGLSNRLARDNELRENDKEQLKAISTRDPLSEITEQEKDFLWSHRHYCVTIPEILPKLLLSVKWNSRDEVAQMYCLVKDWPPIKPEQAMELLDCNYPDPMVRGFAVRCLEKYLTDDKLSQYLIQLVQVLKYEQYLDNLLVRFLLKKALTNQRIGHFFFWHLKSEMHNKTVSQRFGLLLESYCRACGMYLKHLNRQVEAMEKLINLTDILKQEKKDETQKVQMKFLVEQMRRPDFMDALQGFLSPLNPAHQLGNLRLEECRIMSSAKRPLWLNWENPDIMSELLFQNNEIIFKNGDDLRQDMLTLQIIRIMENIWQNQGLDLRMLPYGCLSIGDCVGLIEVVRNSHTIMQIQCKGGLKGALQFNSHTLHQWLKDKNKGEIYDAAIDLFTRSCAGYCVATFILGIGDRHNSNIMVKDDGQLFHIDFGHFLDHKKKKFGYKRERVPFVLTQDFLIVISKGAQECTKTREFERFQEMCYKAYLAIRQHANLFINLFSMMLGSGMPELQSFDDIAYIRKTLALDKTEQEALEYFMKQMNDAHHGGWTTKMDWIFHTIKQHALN
recombinant PI3 kinase α, sequence (P27986 whole entry partner): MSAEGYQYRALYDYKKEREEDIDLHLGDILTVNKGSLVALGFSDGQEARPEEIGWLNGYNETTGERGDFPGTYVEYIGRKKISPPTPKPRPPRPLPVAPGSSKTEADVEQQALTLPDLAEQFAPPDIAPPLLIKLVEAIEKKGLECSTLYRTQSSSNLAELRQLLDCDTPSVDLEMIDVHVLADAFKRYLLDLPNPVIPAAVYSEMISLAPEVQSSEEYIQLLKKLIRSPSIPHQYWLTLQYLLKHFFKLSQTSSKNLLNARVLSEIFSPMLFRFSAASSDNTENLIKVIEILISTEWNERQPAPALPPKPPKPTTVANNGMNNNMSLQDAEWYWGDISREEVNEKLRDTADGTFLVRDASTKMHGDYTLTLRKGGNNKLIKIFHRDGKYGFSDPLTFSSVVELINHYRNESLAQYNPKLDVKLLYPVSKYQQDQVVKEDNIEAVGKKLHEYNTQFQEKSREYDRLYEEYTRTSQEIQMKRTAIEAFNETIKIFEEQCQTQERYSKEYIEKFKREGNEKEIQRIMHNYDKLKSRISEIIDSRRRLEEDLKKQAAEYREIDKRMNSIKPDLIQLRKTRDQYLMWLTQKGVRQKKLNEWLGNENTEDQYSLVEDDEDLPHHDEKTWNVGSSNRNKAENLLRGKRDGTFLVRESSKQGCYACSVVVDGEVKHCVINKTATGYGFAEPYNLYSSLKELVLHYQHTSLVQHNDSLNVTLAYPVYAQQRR
How it was run: as §1

recombinant PI3 kinase δ = recombinant PI3 kinase δ (Homo sapiens (Human), UniProt O00329); test: as above; type: biochemical
recombinant PI3 kinase δ, sequence (O00329 whole entry): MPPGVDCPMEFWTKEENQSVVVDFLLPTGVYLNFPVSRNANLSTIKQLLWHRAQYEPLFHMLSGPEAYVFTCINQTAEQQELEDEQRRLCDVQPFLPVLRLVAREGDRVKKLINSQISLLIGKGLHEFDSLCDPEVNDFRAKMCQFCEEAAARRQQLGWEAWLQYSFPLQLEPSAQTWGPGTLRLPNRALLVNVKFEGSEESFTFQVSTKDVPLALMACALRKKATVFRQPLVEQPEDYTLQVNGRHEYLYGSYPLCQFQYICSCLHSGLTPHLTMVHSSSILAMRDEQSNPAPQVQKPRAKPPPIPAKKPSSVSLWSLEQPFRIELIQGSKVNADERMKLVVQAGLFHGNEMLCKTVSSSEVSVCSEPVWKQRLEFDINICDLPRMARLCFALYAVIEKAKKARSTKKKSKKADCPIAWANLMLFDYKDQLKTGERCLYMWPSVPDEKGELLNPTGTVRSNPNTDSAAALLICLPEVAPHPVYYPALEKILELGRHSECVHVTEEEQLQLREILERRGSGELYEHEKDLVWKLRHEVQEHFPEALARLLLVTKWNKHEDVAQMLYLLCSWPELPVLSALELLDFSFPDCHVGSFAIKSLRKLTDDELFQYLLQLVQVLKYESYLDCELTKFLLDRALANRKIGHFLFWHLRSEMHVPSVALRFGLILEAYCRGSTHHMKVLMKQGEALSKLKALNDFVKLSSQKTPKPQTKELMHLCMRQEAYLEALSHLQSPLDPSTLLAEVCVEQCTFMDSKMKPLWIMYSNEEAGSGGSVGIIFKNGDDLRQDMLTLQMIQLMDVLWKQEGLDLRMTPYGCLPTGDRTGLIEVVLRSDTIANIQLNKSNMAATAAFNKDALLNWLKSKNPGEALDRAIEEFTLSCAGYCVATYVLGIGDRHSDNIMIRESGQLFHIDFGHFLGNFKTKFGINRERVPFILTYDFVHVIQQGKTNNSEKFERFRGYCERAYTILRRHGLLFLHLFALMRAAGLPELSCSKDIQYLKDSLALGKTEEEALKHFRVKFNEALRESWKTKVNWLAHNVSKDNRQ
recombinant PI3 kinase δ, sequence (P27986 whole entry partner): as the sequence (P27986 whole entry partner) above
How it was run: as §1

[3] = tested on: H2O2 induced pAkt in D-U937 cells; test: PI3Kδ Cell Based Assay (H2O2 induced pAkt); details: Homo sapiens, dU937
How it was run: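 Read-out is the pAkt/total Akt signal ratio, measured with anti-pAkt and anti-pan-Akt antibodies after H2O2 stimulation. Cells were U937 monocytes given PMA (100 ng/mL) for 48 to 72 hr. IC50 values fitted from compound serial dilutions.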

[4] = Stereochemical analysis by chiral stationary phase HPLC (atropisomerism); type: physicochemical; details: chiral stationary phase HPLC (16 different conditions for the examples)
Experimental: Each of these mobile phase are compatible with the column packings referred to above, providing sixteen different solvent and stationary phase permutations. Modifiers such as triethylamine (0.1%), formic acid (0.1%) may be added to improve the resolution
Semi-preparative Chiral Stationary Phase LC-UV was performed on a Gilson preparative modular system using a Daicel Chiralpak AD semi-prep column ([…], 20×250 mm) and a flow rate of 18 mL/min eluting with an isocratic method over 20 min using […] heptane:IPA and 0.1% triethylamine employing an injection volume of 1.0 mL.

[5] = tested on: cigarette smoke-induced pulmonary macrophage and neutrophil influx; test: Cigarette Smoke Model; type: in vivo, mouse; details: A/J mice
Experimental: A/J mice (males, 5 weeks old) were exposed to cigarette smoke (4% cigarette smoke, diluted with compressed air) for 30 min/day for 11 days using a Tobacco Smoke Inhalation Experiment System for small animals (Model SIS-CS; Sibata Scientific Technology, Tokyo, Japan). Test substances were given intra-nasally (35 μL of solution in 50% DMSO/PBS) and therapeutically twice daily for 3 days after the final cigarette smoke exposure. Twelve hr after the last dosing, animals were anesthetized, the trachea cannulated and bronchoalveolar lavage fluid (BALF) was collected. The numbers of alveolar macrophages and neutrophils were determined by FACS analysis (EPICS® ALTRA II, Beckman Coulter, Inc., Fullerton, Calif., USA) using anti-mouse MOMA2 antibody (macrophage) or anti-mouse 7/4 antibody (neutrophil).

[6] = activity range, read-out: PI3 Kinase Inhibition IC50 values at stated Isozyme γ
[7] = read-out: PI3 Kinase Inhibition IC50 values at stated Isozyme (nM) γ
[8] = activity range, read-out: PI3 Kinase Inhibition IC50 values at stated Isozyme α
[9] = activity range, read-out: PI3 Kinase Inhibition IC50 values at stated Isozyme δ
[10] = activity range, D-U937 cells, read-out: Cellular Activity IC50 values (H2O2 induced pAkt D-U937 Cells)

recombinant PI3 kinase γ, sequence (P48736 whole entry, the tested form may be a part): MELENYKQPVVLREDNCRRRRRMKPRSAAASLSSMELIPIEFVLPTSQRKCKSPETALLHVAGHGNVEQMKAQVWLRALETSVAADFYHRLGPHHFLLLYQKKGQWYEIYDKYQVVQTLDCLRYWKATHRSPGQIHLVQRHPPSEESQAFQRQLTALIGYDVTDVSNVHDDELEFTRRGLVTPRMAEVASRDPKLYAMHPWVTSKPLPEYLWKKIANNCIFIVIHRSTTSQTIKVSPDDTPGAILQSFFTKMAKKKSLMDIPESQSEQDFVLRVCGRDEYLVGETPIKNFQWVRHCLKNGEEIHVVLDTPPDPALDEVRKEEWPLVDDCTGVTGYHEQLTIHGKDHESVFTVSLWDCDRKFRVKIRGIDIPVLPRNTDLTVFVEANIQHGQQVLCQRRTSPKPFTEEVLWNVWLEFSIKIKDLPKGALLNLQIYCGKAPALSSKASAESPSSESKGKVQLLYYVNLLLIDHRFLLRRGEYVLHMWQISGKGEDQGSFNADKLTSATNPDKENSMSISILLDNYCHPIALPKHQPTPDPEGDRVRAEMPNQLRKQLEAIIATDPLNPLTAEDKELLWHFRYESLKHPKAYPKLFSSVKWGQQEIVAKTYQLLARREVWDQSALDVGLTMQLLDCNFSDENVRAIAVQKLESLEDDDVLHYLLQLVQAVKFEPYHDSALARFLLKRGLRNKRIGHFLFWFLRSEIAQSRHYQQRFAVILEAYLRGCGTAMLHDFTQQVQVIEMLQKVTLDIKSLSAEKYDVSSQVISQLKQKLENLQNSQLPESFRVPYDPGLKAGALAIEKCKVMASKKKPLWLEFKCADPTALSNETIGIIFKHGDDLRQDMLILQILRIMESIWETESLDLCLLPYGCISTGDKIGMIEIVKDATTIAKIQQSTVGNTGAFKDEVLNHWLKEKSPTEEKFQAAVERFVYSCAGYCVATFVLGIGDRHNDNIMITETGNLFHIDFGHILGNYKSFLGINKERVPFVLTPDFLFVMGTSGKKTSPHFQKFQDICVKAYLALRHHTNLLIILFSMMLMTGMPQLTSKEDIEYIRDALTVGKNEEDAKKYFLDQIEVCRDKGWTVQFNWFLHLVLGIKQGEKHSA

Row | SMILES | IC50 (recombinant PI3 kinase γ; [6]) | Cell Viability MTT Assay in D-U937 cells at 4 hr [1] | Cell Viability MTT Assay in D-U937 cells at 24 hr [1] | IC50 (recombinant PI3 kinase α; [8]) | IC50 (recombinant PI3 kinase δ; [9]) | IC50 [3, 10] | atropisomerism by chiral stationary phase HPLC [4] | further results
1 | Nc1ncnc2c1c(-c1ccc(O)cc1)nn2Cc1nc2cccc(C#CCCCC(=O)O)c2c(=O)n1Cc1ccccc1Cl [Example 4, 6-(2-((4-Amino-3-(4-hydroxyphenyl)-1H-pyrazolo[3,4-d]pyrimidin-1-yl)methyl)-3-(2-chlorobenzyl)-4-oxo-3,4-dihydroquinazolin-5-yl)hex-5-ynoic acid] | < 50 nM | − (− <30%) | − (− <30%) |  |  |  |  | IC50 (recombinant PI3 kinase γ; [7]): 20 nM; % Inhibition of neutrophils in BAL at the dose indicated (mg/mL) (0.05) ([2]; mouse): 3.2%; % Reduction of inhibition at 8 hr compared with 2 hr [2]: 73%; % Inhibition of neutrophils in BAL at the dose indicated (mg/mL) (0.2) ([2]; mouse): 47.2%; % Inhibition at 0.2 mg/mL dose at time indicated (hr) (2) [2]: 47.2%; % Inhibition at 0.2 mg/mL dose at time indicated (hr) (8) [2]: 12.9%; % Inhibition of neutrophils in BAL at the dose indicated (mg/mL) (1.0) ([2]; mouse): 64.6%; inhibition of LPS-induced neutrophilia (neutrophil influx into the lung), in words ([2]; mouse): dose dependent inhibition
2 | Nc1ncnc2c1c(-c1ccc(O)cc1)nn2Cc1nc2cccc(C#CCCCC(=O)N3CCOCC3)c2c(=O)n1Cc1ccccc1Cl [Example 5, 2-((4-Amino-3-(4-hydroxyphenyl)-1H-pyrazolo[3,4-d]pyrimidin-1-yl)methyl)-3-(2-chlorobenzyl)-5-(6-morpholino-6-oxohex-1-yn-1-yl)quinazolin-4(3H)-one] | < 50 nM | − (− <30%) | − (− <30%) | < 50 nM | < 50 nM | < 10 nM |  | IC50 (recombinant PI3 kinase α; read-out: PI3 Kinase Inhibition IC50 values at stated Isozyme (nM) α): 20 nM; IC50 (recombinant PI3 kinase γ; [7]): 16 nM; IC50 (recombinant PI3 kinase δ; read-out: PI3 Kinase Inhibition IC50 values at stated Isozyme (nM) δ): 20 nM; IC50 ([3]; read-out: Cellular Activity IC50 values (H2O2 induced pAkt (nM) D-U937 Cells)): 0.58 nM; % Inhibition of neutrophils in BAL at the dose indicated (mg/mL) (0.05) ([2]; mouse): 4.8%; % Reduction of inhibition at 8 hr compared with 2 hr [2]: 44%; % Inhibition of neutrophils in BAL at the dose indicated (mg/mL) (0.2) ([2]; mouse): 37.7%; % Inhibition at 0.2 mg/mL dose at time indicated (hr) (2) [2]: 37.7%; % Inhibition at 0.2 mg/mL dose at time indicated (hr) (8) [2]: 21.2%; % Inhibition of neutrophils in BAL at the dose indicated (mg/mL) (1.0) ([2]; mouse): 58.5%; inhibition of LPS-induced neutrophilia (neutrophil influx into the lung), in words ([2]; mouse): dose dependent inhibition; level of anti-inflammatory activity at the 8 hr time point relative to value 2 hr after drug treatment ([2]; same dose, LPS challenge, mouse): over half of its original value
3 | C#Cc1cccc2nc(Cn3nc(-c4cccc(O)c4)c4c(N)ncnc43)n(Cc3ccc(Cl)cc3)c(=O)c12 [Example 25, 2-((4-Amino-3-(3-hydroxyphenyl)-1H-pyrazolo[3,4-d]pyrimidin-1-yl)methyl)-3-(4-chlorobenzyl)-5-ethynylquinazolin-4(3H)-one] | 50 to 1000 nM | − (− <30%) | − (− <30%) | 50 to 1000 nM | < 50 nM | < 10 nM | no evidence for atropisomerism was observed | 
4 | C#Cc1cccc2nc(Cn3nc(-c4cccc(O)c4)c4c(N)ncnc43)n(Cc3cc(C)on3)c(=O)c12 [Example 31, 2-((4-Amino-3-(3-hydroxyphenyl)-1H-pyrazolo[3,4-d]pyrimidin-1-yl)methyl)-5-ethynyl-3-((5-methylisoxazol-3-yl)methyl)quinazolin-4(3H)-one] | 50 to 1000 nM | − (− <30%) | − (− <30%) | 50 to 1000 nM | < 50 nM | < 10 nM | no evidence for atropisomerism was observed | 
5 | C#Cc1cccc2nc(Cn3nc(-c4ccc(O)cc4)c4c(N)ncnc43)n(Cc3cc(C)on3)c(=O)c12 [Example 32, 2-((4-Amino-3-(4-hydroxyphenyl)-1H-pyrazolo[3,4-d]pyrimidin-1-yl)methyl)-5-ethynyl-3-((5-methylisoxazol-3-yl)methyl)quinazolin-4(3H)-one] | 50 to 1000 nM | − (− <30%) | − (− <30%) | 50 to 1000 nM | < 50 nM | < 10 nM | no evidence for atropisomerism was observed | 
6 | C#Cc1cccc2nc(Cn3nc(-c4ccc(O)cc4)c4c(N)ncnc43)n(Cc3cccc(Cl)c3F)c(=O)c12 [Example 33, 2-((4-Amino-3-(4-hydroxyphenyl)-1H-pyrazolo[3,4-d]pyrimidin-1-yl)methyl)-3-(3-chloro-2-fluorobenzyl)-5-ethynylquinazolin-4(3H)-one] | 50 to 1000 nM | − (− <30%) | − (− <30%) | 50 to 1000 nM | < 50 nM | < 10 nM | no evidence for atropisomerism was observed | 
7 | C#Cc1cccc2nc(Cn3nc(-c4ccc(O)cc4)c4c(N)ncnc43)n(Cc3c(F)cccc3F)c(=O)c12 [Example 34, 2-((4-Amino-3-(4-hydroxyphenyl)-1H-pyrazolo[3,4-d]pyrimidin-1-yl)methyl)-3-(2,6-difluorobenzyl)-5-ethynylquinazolin-4(3H)-one] | 50 to 1000 nM | − (− <30%) | − (− <30%) | 50 to 1000 nM | < 50 nM | < 10 nM | no evidence for atropisomerism was observed | 
8 | C#Cc1cccc2nc(Cn3nc(-c4ccc(O)cc4)c4c(N)ncnc43)n(Cc3ccc(F)cc3)c(=O)c12 [Example 38, 2-((4-Amino-3-(4-hydroxyphenyl)-1H-pyrazolo[3,4-d]pyrimidin-1-yl)methyl)-5-ethynyl-3-(4-fluorobenzyl) quinazolin-4(3H)-one] | 50 to 1000 nM | − (− <30%) | − (− <30%) | 50 to 1000 nM | < 50 nM | < 10 nM | no evidence for atropisomerism was observed | 
9 | C[C@@H]1C[C@H]2[C@@H]3CCC4=CC(=O)C=C[C@]4(C)[C@@]3(F)[C@@H](O)C[C@]2(C)[C@@]1(O)C(=O)CO [dexamethasone, reference compound] |  |  |  |  |  |  |  | anti-inflammatory activity (BALF neutrophils and alveolar macrophages) ([5]; 0.3-10 mg/kg, p.o.): inactive
10 | CCC(=O)O[C@]1(C(=O)SCF)[C@H](C)C[C@H]2[C@@H]3C[C@H](F)C4=CC(=O)C=C[C@]4(C)[C@@]3(F)[C@@H](O)C[C@@]21C [fluticasone propionate, reference compound] |  |  |  |  |  |  |  | anti-inflammatory activity (BALF neutrophils and alveolar macrophages), monotherapy ([5]; monotherapy, twice daily for 3 days after final smoke exposure): lacks effect as monotherapy
